One data set concerns M. tuberculosis. Kind of data set: Potentiation of ethionamide cell test (High Content Screening). Type of data set: cell-based. To be noted: ligand concentration necessary to potentiate ten times the activity of ethionamide, constant ethionamide 0.1 μg/mL (1/10 of its CMI99), 50% inhibition of bacterial growth. On the procedure: Potentiation of Ethionamide Cell Test
The test used made it possible to ascertain that these compounds were capable of potentiating the bactericide activity of ethionamide on M. tuberculosis alone. This test was a “High Content Screening” (HCS) or dense content screening test. HCS tests were performed on cell cultures that enable certain phenotypic features of a microorganism (e.g. a bacterium) in a given environment to be studied. The phenotypic changes observed can range from the increase (or decrease) of the production of certain marked proteins to the modification of the morphology of the microorganism under consideration. The method is described in the following publication: “Ethionamide Boosters: Synthesis, Biological Activity, and Structure-Activity Relationships of a Series of 1,2,4-Oxadiazole EthR Inhibitors”, M. Flipo et al., Journal of Medicinal Chemistry, 2011, 54(8), 2994-3010.
This test aims to determine the ligand concentration necessary to potentiate ten times the activity of ethionamide (ETH).
To measure the ligand concentration necessary for potentiating ten times the activity of ETH, a constant concentration of ethionamide (0.1 μg/mL corresponding to 1/10 of its CMI99) was chosen. By varying the ligand concentration, the concentration necessary to inhibit 50% of the bacterial growth, i.e. the concentration necessary to potentiate ten times the activity of ethionamide, was determined. This concentration was denoted EC50.

A short description of data set [1]: Measurement of the solubility. To be noted: aqueous buffer, kinetic from dmso stock; PBS at pH 7.4, 24 h at RT, LC-MS, ratio of mass signals PBS/MeOH. Type of data set: physicochemical. On the procedure: Measurement of the Solubility
40 μL of a solution at 10 mM in DMSO of the sample was added to 1.96 mL MeOH or PBS at pH 7.4. The samples were then agitated during 24 h at RT, centrifuged during 5 min and then filtrated on filters of 0.45 μm size. 20 μL of each solution were then added to 180 μL MeOH and then analyzed by LC-MS. The solubility was determined as ratio of the surfaces of the mass signals PBS/MeOH.

The values below come from patent US9957249B2, “Saturated nitrogen and N-acylated heterocycles potentiating the activity of an active antibiotic against Mycobacteria” (Universite de Droit et de la Sante de Lille 2, priority 2012, dated 2018).

For orientation: pEC50 means the EC50 on a negative log10 scale, so that one unit is a factor of ten. Usually solubility stands for the dissolved amount per volume that the medium holds.

Each structure is given as a SMILES string. pEC50: −log10 of the molar value. Some results are limits rather than exact numbers.

For `O=C(CCC(F)(F)F)N1CCC(c2ccccc2)CC1` [BDM_44647], the pEC50 in the data set on M. tuberculosis (Table I) and with M. tuberculosis (Table III) was 9.10 each time. Further, in data set [1], the solubility at 24 h was 50.4 µg/mL.

Consider `O=C(CCCC(F)(F)F)N1CCC(c2ccccc2)CC1` [BDM_44648], for which the pEC50 in the data set with M. tuberculosis (Table I) and in the data set with M. tuberculosis (Table III) was more than 8.00 in each case. For the same molecule, the solubility at 24 h in data set [1] was determined as 42.9 µg/mL.

With `CC(C)CCC(=O)N1CCC(c2ccccc2)CC1` [BDM_44649], the negative-log EC50 (pEC50) with M. tuberculosis (Table II) and in the data set with M. tuberculosis (Table III) was 7.22 each time.

On to `O=C(CCC(F)(F)F)N1CCC(c2ccc(F)cc2)CC1` [BDM_44751], for which the negative logarithm of the EC50 (pEC50) in the data set on M. tuberculosis (Table I) and with M. tuberculosis (Table III) was 9.00 throughout. Further, the solubility at 24 h in data set [1] was 51.9 µg/mL.

Regarding `O=C(CCC(F)(F)F)N1CCN(c2ccccc2)CC1` [BDM_44808], in the data set on M. tuberculosis (Table III), the pEC50 was 8.00.

For the molecule `O=C(CCCC(F)(F)F)N1CCN(c2ccccc2)CC1` [BDM_44809], the pEC50 in the data set with M. tuberculosis (Table III) is 7.15.

Take `CC(C)CCC(=O)N1CCN(c2ccccc2)CC1` [BDM_44810]: the negative logarithm of the EC50 (pEC50) in the data set with M. tuberculosis (Table II) and with M. tuberculosis (Table III) was 7.22 in each case.

On to `O=C(CCC(F)(F)F)N1CCN(c2ccc(Cl)cc2)CC1` [BDM_44811], for which the pEC50 in the data set with M. tuberculosis (Table III) is 8.00.

As to `O=C(CCCC(F)(F)F)N1CCN(c2ccc(Cl)cc2)CC1` [BDM_44812], the pEC50 in the data set on M. tuberculosis (Table III) was more than 7.70.

Regarding `CC(C)CCC(=O)N1CCN(c2ccc(Cl)cc2)CC1` [BDM_44813], the negative-log EC50 (pEC50) with M. tuberculosis (Table II) and with M. tuberculosis (Table III) was 7.00 in each case.

As for `O=C(CCC(F)(F)F)N1CCN(c2ccc(F)cc2)CC1` [BDM_44819], the pEC50 in the data set with M. tuberculosis (Table III) is 7.57.

Take `O=C(CCCC(F)(F)F)N1CCN(c2ccc(F)cc2)CC1` [BDM_44820]: the negative logarithm of the EC50 (pEC50) in the data set with M. tuberculosis (Table III) was 6.85.

As for `CC(C)CCC(=O)N1CCN(c2ccc(F)cc2)CC1` [BDM_44821], the pEC50 in the data set on M. tuberculosis (Table II) and in the data set on M. tuberculosis (Table III) was 7.00 throughout.

In the case of `O=C(CCC(F)(F)F)N1CCC(c2ccc(O)cc2)CC1` [BDM_45572], the negative logarithm of the EC50 (pEC50) in the data set on M. tuberculosis (Table III) is 6.55.

`O=C(CCC(F)(F)F)N1CCC(c2cccc(F)c2)CC1` [BDM_70531]: in the data set on M. tuberculosis (Table III), the pEC50 was 9.10.

In the case of `O=C(CCC(F)(F)F)N1CCC(c2ccccc2Cl)CC1` [BDM_70534], in the data set on M. tuberculosis (Table III), the pEC50 is 6.96.

With `O=C(CCC(F)(F)F)N1CCC(c2ccc(Cl)cc2)CC1` [BDM_70535], the negative logarithm of the EC50 (pEC50) in the data set on M. tuberculosis (Table III) was 6.92.

As for `O=C(CCC(F)(F)F)N1CCC(c2ccccc2C(F)(F)F)CC1` [BDM_70536], in the data set with M. tuberculosis (Table III), the pEC50 was 6.11.

For the molecule `COc1ccc(C2CCN(C(=O)CCC(F)(F)F)CC2)cc1` [BDM_70537], the negative-log EC50 (pEC50) in the data set with M. tuberculosis (Table III) was 8.70.

Consider `COc1cccc(C2CCN(C(=O)CCC(F)(F)F)CC2)c1` [BDM_70538], for which the negative logarithm of the EC50 (pEC50) in the data set on M. tuberculosis (Table III) was 6.85.

Regarding `COc1ccccc1C1CCN(C(=O)CCC(F)(F)F)CC1` [BDM_70540], the negative-log EC50 (pEC50) in the data set on M. tuberculosis (Table III) was 6.85.

For the molecule `O=C(CCC(F)(F)F)N1CCC(c2ccncc2)CC1` [BDM_70542], the pEC50 in the data set with M. tuberculosis (Table III) is 6.48.

Take `O=C(CCC(F)(F)F)N1CCC(c2cccc(C(F)(F)F)c2)CC1` [BDM_70546]: the pEC50 in the data set with M. tuberculosis (Table III) was 9.00.

Turning to `Cc1ccc(C2CCN(C(=O)CCC(F)(F)F)CC2)cc1` [BDM_70663], in the data set on M. tuberculosis (Table III), the negative logarithm of the EC50 (pEC50) was 7.59.

Consider `Cc1cccc(C2CCN(C(=O)CCC(F)(F)F)CC2)c1` [BDM_70664], for which the pEC50 with M. tuberculosis (Table III) was 9.00.

In the case of `Cc1ccccc1C1CCN(C(=O)CCC(F)(F)F)CC1` [BDM_70665], in the data set with M. tuberculosis (Table III), the pEC50 is 7.46.

For the molecule `O=C(CCC(F)(F)F)N1CCC(c2ccccc2F)CC1` [BDM_70666], the negative logarithm of the EC50 (pEC50) with M. tuberculosis (Table III) is 9.00.

`O=C(CCC(F)(F)F)N1CCC(c2ccc(C(F)(F)F)cc2)CC1` [BDM_70667]: the negative-log EC50 (pEC50) in the data set on M. tuberculosis (Table III) is 6.52.

Regarding `O=C(CCC(F)(F)F)N1CCC(c2cccc(Cl)c2)CC1` [BDM_70668], the pEC50 in the data set on M. tuberculosis (Table III) was 9.30.

For the molecule `O=C(CCC(F)(F)F)N1CCN(c2ccc(F)cc2F)CC1` [BDM_70669], the pEC50 in the data set with M. tuberculosis (Table III) was 7.68.

As to `O=C(CCC(F)(F)F)N1CCC(Cc2ccccc2)CC1` [BDM_70670], the negative logarithm of the EC50 (pEC50) with M. tuberculosis (Table III) was 7.27.

In the case of `O=C(CCC(F)(F)F)N1CCC(c2ccc(Cl)c(Cl)c2)CC1` [BDM_70716], the pEC50 in the data set with M. tuberculosis (Table III) was 7.60.

In the case of `O=C(CCC(F)(F)F)N1CCC(c2ccc(F)cc2)C1` (stereo not shown) [BDM_70717], the pEC50 in the data set with M. tuberculosis (Table I) and in the data set with M. tuberculosis (Table III) was 8.05 in each case.

Regarding `O=C(CCC(F)(F)F)N1CCN(Cc2ccccc2)CC1` [BDM_70719], the negative-log EC50 (pEC50) with M. tuberculosis (Table III) was 5.96.

As for `O=C(CCC(F)(F)F)N1CCC(c2c(F)cc(F)cc2F)CC1` [BDM_71148], the negative-log EC50 (pEC50) in the data set on M. tuberculosis (Table III) was 9.00.
